Laboratory results taken from patent US10131652B2, “Pyrimidinyloxy benzene derivatives as herbicides” (E. I. DU PONT DE NEMOURS AND COMPANY, priority 2014, dated 2018).
Like-named read-outs stand apart in the source and are kept apart here.

Tests used:
Test in all cases: Test D pre-/postemergence plant response
Type in all cases: in vivo
[1] = tested on: large (Lg) crabgrass (Digitaria sanguinalis); conditions: Digitaria sanguinalis, pre-emergence, Preemergence
How it was run: (§1)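 Pre-/post-emergence greenhouse test. Pre: seeded loam+sand, sprayed same day. Post: 1–4 leaf plants (2–18 cm), peat/vermiculite mix. Formulation: non-phytotoxic solvent + surfactant. Scored visually d13–15, 0–100 vs control.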

[2] = tested on: yellow nutsedge (Cyperus esculentus); conditions: Cyperus, pre-emergence, Preemergence
How it was run: as §1

[3] = tested on: giant foxtail (Setaria faberii); conditions: Setaria faberi; for pest or weed control at 16 g/ha: 16 g ai/ha; for pest or weed control at 31 g/ha: 31 g ai/ha; for pest or weed control at 62 g/ha: 62 g ai/ha; for pest or weed control at 125 g/ha: 125 g ai/ha
How it was run: as §1

[4] = tested on: galium (catchweed bedstraw, Galium aparine); conditions: Galium; for pest or weed control at 16 g/ha: 16 g ai/ha; for pest or weed control at 31 g/ha: 31 g ai/ha; for pest or weed control at 62 g/ha: 62 g ai/ha; for pest or weed control at 125 g/ha: 125 g ai/ha
How it was run: as §1

[5] = tested on: ragweed (common ragweed, Ambrosia elatior); conditions: Ambrosia artemisiifolia; for pest or weed control at 16 g/ha: 16 g ai/ha; for pest or weed control at 31 g/ha: 31 g ai/ha; for pest or weed control at 62 g/ha: 62 g ai/ha; for pest or weed control at 125 g/ha: 125 g ai/ha
How it was run: as §1

corn (Zea mays) = conditions: Zea mays; for Corn plant response rating (crop injury, 0 = no effect, 100 = complete kill) at 62 g/ha: 62 g ai/ha
How it was run: as §1

[6] = tested on: barnyardgrass (Echinochloa crus-galli); conditions: Echinochloa crus-galli; for pest or weed control at 16 g/ha: 16 g ai/ha; for pest or weed control at 16 g/ha / pest or weed control at 31 g/ha: scale 0 to 100 (0 no effect, 100 complete control); for pest or weed control at 31 g/ha: 31 g ai/ha; for pest or weed control at 62 g/ha: 62 g ai/ha; for pest or weed control at 125 g/ha: 125 g ai/ha
How it was run: as §1

[7] = post-emergence, Postemergence, scale 0 to 100 (0 no effect, 100 complete control), read-out: Foxtail, Giant plant response rating
[8] = post-emergence, Postemergence, scale 0 to 100, 0 no effect, 100 complete control, read-out: Plant response rating, Foxtail, Giant
[9] = pre-emergence, Preemergence, scale 0 to 100 (0 no effect, 100 complete control), read-out: Plant response rating, Foxtail, Giant
[10] = post-emergence, Postemergence, scale 0 to 100 (0 no effect, 100 complete control), read-out: Galium plant response rating
[11] = post-emergence, Postemergence, scale 0 to 100, 0 no effect, 100 complete control, read-out: Plant response rating, Galium
[12] = pre-emergence, Preemergence, scale 0 to 100 (0 no effect, 100 complete control), read-out: Plant response rating, Galium
[13] = post-emergence, Postemergence, scale 0 to 100 (0 no effect, 100 complete control), read-out: Ragweed plant response rating
[14] = post-emergence, Postemergence, scale 0 to 100, 0 no effect, 100 complete control, read-out: Plant response rating, Ragweed
[15] = pre-emergence, Preemergence, scale 0 to 100 (0 no effect, 100 complete control), read-out: Plant response rating, Ragweed
[16] = post-emergence, Postemergence, read-out: Barnyardgrass plant response rating
[17] = post-emergence, Postemergence, scale 0 to 100, 0 no effect, 100 complete control, read-out: Plant response rating, Barnyardgrass
[18] = pre-emergence, Preemergence, read-out: Plant response rating (scale 0 to 100), Barnyardgrass
[19] = pre-emergence, Preemergence, read-out: Plant response rating, Barnyardgrass

For `FC(F)c1cc(-c2ccccc2Oc2ncc(Cl)cn2)on1` [Compound 53, 5-chloro-2-[2-[3-(difluoromethyl)-5-isoxazolyl]phenoxy]pyrimidine], the pest or weed control at 125 g/ha ([1]; 125 g ai/ha, read-out: Plant response rating (scale 0 to 100), Crabgrass, Large) was 100%, the pest or weed control at 16 g/ha ([1]; 16 g ai/ha, scale 0 to 100 (0 no effect, 100 complete control), read-out: Plant response rating, Crabgrass, Large) was 65% and the pest or weed control at 31 g/ha ([1]; 31 g ai/ha, scale 0 to 100 (0 no effect, 100 complete control), read-out: Plant response rating, Crabgrass, Large) was 95%. It also gave a pest or weed control at 62 g/ha ([1]; 62 g ai/ha, scale 0 to 100 (0 no effect, 100 complete control), read-out: Plant response rating, Crabgrass, Large) of 98%, a pest or weed control at 125 g/ha ([2]; 125 g ai/ha, read-out: Plant response rating (scale 0 to 100), Nutsedge, Yellow) of 5% and a pest or weed control at 16 g/ha ([2]; 16 g ai/ha, scale 0 to 100 (0 no effect, 100 complete control), read-out: Plant response rating, Nutsedge, Yellow) of 20%. For the same compound, the pest or weed control at 31 g/ha ([2]; 31 g ai/ha, scale 0 to 100 (0 no effect, 100 complete control), read-out: Plant response rating, Nutsedge, Yellow) was 0%, the pest or weed control at 62 g/ha ([2]; 62 g ai/ha, scale 0 to 100 (0 no effect, 100 complete control), read-out: Plant response rating, Nutsedge, Yellow) was 0% and the pest or weed control at 16 g/ha [3, 7] was 40%. The pest or weed control at 31 g/ha [3, 7] was 20%, the pest or weed control at 62 g/ha [3, 8] was 25% and the pest or weed control at 125 g/ha [3, 8] was 30%. For the same compound, the pest or weed control at 125 g/ha ([3]; pre-emergence, Preemergence, read-out: Plant response rating (scale 0 to 100), Foxtail, Giant) was 100%, the pest or weed control at 16 g/ha [3, 9] was 10% and the pest or weed control at 31 g/ha [3, 9] was 85%. It also gave a pest or weed control at 62 g/ha [3, 9] of 98%, a pest or weed control at 16 g/ha [4, 10] of 60% and a pest or weed control at 31 g/ha [4, 10] of 85%. For the same compound, the pest or weed control at 62 g/ha [4, 11] was 95%, the pest or weed control at 125 g/ha [4, 11] was 90% and the pest or weed control at 125 g/ha ([4]; pre-emergence, Preemergence, read-out: Plant response rating (scale 0 to 100), Galium) was 98%. The pest or weed control at 16 g/ha [4, 12] was 85%, the pest or weed control at 31 g/ha [4, 12] was 95% and the pest or weed control at 62 g/ha [4, 12] was 100%. The pest or weed control at 16 g/ha [5, 13] was 50%, the pest or weed control at 31 g/ha [5, 13] was 50% and the pest or weed control at 62 g/ha [5, 14] was 55%. The pest or weed control at 125 g/ha [5, 14] was 55%, the pest or weed control at 125 g/ha ([5]; pre-emergence, Preemergence, read-out: Plant response rating (scale 0 to 100), Ragweed) was 85% and the pest or weed control at 16 g/ha [5, 15] was 0%. The pest or weed control at 31 g/ha [5, 15] was 40%, the pest or weed control at 62 g/ha [5, 15] was 55% and the plant injury at 16 g/ha (corn (Zea mays); post-emergence, Postemergence, 16 g ai/ha, scale 0 to 100 (0 no effect, 100 complete control), read-out: Corn plant response rating) was 0%. For the same compound, the plant injury at 31 g/ha (corn (Zea mays); post-emergence, Postemergence, 31 g ai/ha, scale 0 to 100 (0 no effect, 100 complete control), read-out: Corn plant response rating) was 0%, the Corn plant response rating (crop injury, 0 = no effect, 100 = complete kill) at 62 g/ha (corn (Zea mays); post-emergence, Postemergence, scale 0 to 100, 0 no effect, 100 complete control) was 0% and the Corn plant response rating (crop injury, 0 = no effect, 100 = complete kill) at 125 g/ha (corn (Zea mays); post-emergence, Postemergence, 125 g ai/ha, scale 0 to 100, 0 no effect, 100 complete control) was 0%. For the same compound, the plant injury at 125 g/ha (corn (Zea mays); pre-emergence, Preemergence, 125 g ai/ha, read-out: Plant response rating (scale 0 to 100), Corn) was 5%, the Corn plant response rating (crop injury, 0 = no effect, 100 = complete kill) at 16 g/ha (corn (Zea mays); pre-emergence, Preemergence, 16 g ai/ha, scale 0 to 100 (0 no effect, 100 complete control)) was 5% and the Corn plant response rating (crop injury, 0 = no effect, 100 = complete kill) at 31 g/ha (corn (Zea mays); pre-emergence, Preemergence, 31 g ai/ha, scale 0 to 100 (0 no effect, 100 complete control)) was 10%. The Corn plant response rating (crop injury, 0 = no effect, 100 = complete kill) at 62 g/ha (corn (Zea mays); pre-emergence, Preemergence, scale 0 to 100 (0 no effect, 100 complete control)) was 100%, the pest or weed control at 16 g/ha [6, 16] was 5% and the pest or weed control at 31 g/ha [6, 16] was 10%. The pest or weed control at 62 g/ha [6, 17] was 25%, the pest or weed control at 125 g/ha [6, 17] was 35% and the pest or weed control at 62 g/ha [6, 18] was 40%. It also gave a pest or weed control at 125 g/ha [6, 18] of 95%, a pest or weed control at 16 g/ha [6, 19] of 0% and a pest or weed control at 31 g/ha [6, 19] of 5%.
